Results as given in PubChem BioAssay (NCI).
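Exposure lasted 48 hours, with cells grown in 96-well plates and compounds tested at five concentrations. Abbreviation: GI50, concentration required for 50% inhibition of growth. TGI denotes the concentration required for complete inhibition of growth.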

Experiments:
Experiment in all cases: NCI anticancer screen, dose series, 48 h
SNB-19 CNS = test system: SNB-19 CNS
SK-MEL-28 melanoma = test system: SK-MEL-28 melanoma
SK-MEL-5 melanoma = test system: SK-MEL-5 melanoma
HOP-92 NSCLC = test system: HOP-92 NSCLC
SF-295 CNS = test system: SF-295 CNS
IGROV1 ovarian = test system: IGROV1 ovarian
MOLT-4 leukemia = test system: MOLT-4 leukemia
NCI-H460 lung = test system: NCI-H460 lung
RXF 393 renal = test system: RXF 393 renal
CCRF-CEM leukemia = test system: CCRF-CEM leukemia

Row | SMILES | GI50 (SNB-19 CNS) [µM] | TGI (SNB-19 CNS) [µM] | GI50 (SK-MEL-28 melanoma) [µM] | TGI (SK-MEL-28 melanoma) [µM] | GI50 (SK-MEL-5 melanoma) [µM] | TGI (SK-MEL-5 melanoma) [µM] | GI50 (HOP-92 NSCLC) [µM] | TGI (HOP-92 NSCLC) [µM] | GI50 (SF-295 CNS) [µM] | TGI (SF-295 CNS) [µM] | GI50 (IGROV1 ovarian) [µM] | TGI (IGROV1 ovarian) [µM] | GI50 (MOLT-4 leukemia) [µM] | TGI (MOLT-4 leukemia) [µM] | GI50 (NCI-H460 lung) [µM] | TGI (NCI-H460 lung) [µM] | TGI (RXF 393 renal) [µM] | TGI (CCRF-CEM leukemia) [µM] | GI50 (RXF 393 renal) [µM] | GI50 (CCRF-CEM leukemia) [µM]
1 | Cn1c2ccccc2c2c(Nc3ccccc3)c3ccccc3nc21 | 11.5 | > 100 | 17 | 49.6 | 13.7 | 28.1 | 13.9 | 56.5 | 5.62 | 23.8 | 61.3 | > 100 | 7.89 | > 100 | 17.5 | 41.1 |  |  |  | 
2 | O=S1(=O)c2ccccc2NC(c2ccc3ccccc3c2)CC1c1ccccc1F (centres undefined) |  | > 100 |  | > 100 |  | > 100 |  |  |  | > 100 |  | > 100 |  | > 100 |  | > 100 | > 100 | > 100 |  | 
3 | C=C(CN1CCN(c2ccc(Cl)cc2F)CC1)c1ccc(C(=O)Nc2ccccc2N)cc1 |  | > 34.3 | > 26.8 | > 100 | 2.3 | > 22.4 | 1.57 | > 27.4 | 3.16 | > 100 | 1.16 | 14.8 |  |  | 3.23 | > 100 | 12.4 | > 100 | 0.867 | 0.524
4 | Nc1ccccc1SC(C[N+](=O)[O-])c1ccc2c(c1)OCO2 (centres undefined) |  | 24.3 |  | 11.3 |  | 15.3 |  | 30.2 |  | 18.8 |  | 3.2 |  | 6.66 |  | 4.75 | 3.33 |  |  | 
5 | NC(=O)c1sc(-n2cnc3ccccc32)cc1OCc1ccccc1Br | 11.6 | > 25 | > 25 | > 25 | 4.75 | > 25 |  |  | 3.9 | > 25 | 11 | > 25 | 3.56 | > 25 | 2.36 | > 25 | > 25 | > 25 | 1.73 | 1.34
6 | Clc1cc2nsnc2c(Cl)n1 |  | 36.7 |  | 44.4 |  | 32.7 |  | 33.1 |  | > 100 |  | 86.3 |  | 43.6 |  | > 100 |  | 27.1 |  | 
7 | O=C1/C(=C/c2ccccc2)CN(C(=O)C(Cl)(Cl)Cl)C/C1=C\c1ccccc1 |  | 10.7 |  | 3.33 |  | 2.36 |  |  |  | 3.24 |  | 5.32 |  | 5.77 |  | 4.17 | 4.02 | 3.86 |  | 
8 | CNS(=O)(=O)NNS(=O)(=O)c1ccc2ccccc2c1 |  | > 100 |  | > 100 |  | > 100 |  |  |  | > 100 |  | > 100 |  | > 100 |  | > 100 |  | > 100 |  | 
9 | O=C(N/C(=C\c1ccc(/C=C(\NC(=O)c2ccccc2)c2nc3cc([N+](=O)[O-])ccc3[nH]2)cc1)c1nc2cc([N+](=O)[O-])ccc2[nH]1)c1ccccc1 |  | > 100 |  | 69.8 |  | > 100 |  | > 100 |  | > 100 |  | > 100 |  | > 100 |  |  | > 100 | > 100 |  | 
10 | COc1ccc(C(=O)Cn2c(C(=O)c3ccccc3)nc(-c3ccc(OC)cc3)c2-c2ccc(OC)cc2)cc1 | > 100 | > 100 | > 100 | > 100 | > 100 | > 100 | 24.5 | 60.4 | 42.5 | > 100 | 71.2 | > 100 | > 100 | > 100 | > 100 | > 100 | 49.2 |  | 19.9 | 
11 | Cc1ccc(NC2=C(Cl)C(=O)N(Cc3ccccc3)C2=O)cc1O | 41.2 | > 100 | 52.8 | > 100 | 15.5 | 37.5 |  |  | 22 | 81.8 | 35.4 | > 100 | 24.3 | > 100 | 34 | > 100 | > 100 | > 100 | 52 | 29.6
12 | CC1=C(C(=O)Nc2ccc(Cl)c(Cl)c2)C(c2cccc(Oc3ccccc3)c2)NC(=S)N1 (centres undefined) | 7.07 | 14.1 |  |  | 7.89 | 15 | 13.3 | 31.2 | 8.15 | 15.3 | 7.72 | 19 | > 50 | > 50 | 7.57 | 14.4 | 22.1 |  | 7.33 | 
13 | COc1cc2c(cc1OC)-c1c3cc(O)ccc3nn[n+]1CC2 |  | > 100 |  | > 100 |  | > 100 |  |  |  | > 100 |  | > 100 |  | > 100 |  | > 100 | > 100 | > 100 |  | 
14 | CC(=O)NNc1nc(C)c(C(=O)NNC(=O)C(=O)Nc2ccc(Cl)cc2)s1 |  | > 100 |  | > 100 |  | > 100 |  | > 100 |  | > 100 |  | > 100 |  | > 100 |  | > 100 |  | > 100 |  | 
15 | COc1cc(CNc2cnc3cc(N)cc(N)c3n2)cc(OC)c1 |  |  |  |  | 18.7 | 36.1 | 10.3 | 25.9 | 26.5 | 71.9 | 33.6 | > 100 | 36.9 | > 100 | 54.4 | > 100 |  | 52.3 |  | 18.5
16 | NC(Cc1c[nH]c2c(O)cccc12)C(=O)O (centres undefined) | > 100 | > 100 | > 100 | > 100 | 49.6 | > 100 | > 100 | > 100 | > 100 | > 100 | > 100 | > 100 | > 100 | > 100 | > 100 | > 100 |  | > 100 |  | > 100
17 | CCCCCCCCCCCOc1ccc(C(=O)C(=O)c2ccc(OCCCCCCCCCCC)c(OCCCCCCCCCCC)c2)cc1OCCCCCCCCCCC |  | > 100 |  | > 100 |  | > 100 |  |  |  | > 100 |  | > 100 |  | > 100 |  | > 100 |  | > 100 |  | 
